Laboratory results: patent US5710174A, “Factor XIIIA inhibitor” (Zymo Genetics, Inc., priority 1995, dated 1998)

Legend:
[1] = biological target: T1, tissue transglutaminase (tTG) (Cavia cutleri, UniProt P08587); assay: tTG screening assay; type: biochemical
T1 construct: purchased Sigma
T1 sequence (P08587 1-690): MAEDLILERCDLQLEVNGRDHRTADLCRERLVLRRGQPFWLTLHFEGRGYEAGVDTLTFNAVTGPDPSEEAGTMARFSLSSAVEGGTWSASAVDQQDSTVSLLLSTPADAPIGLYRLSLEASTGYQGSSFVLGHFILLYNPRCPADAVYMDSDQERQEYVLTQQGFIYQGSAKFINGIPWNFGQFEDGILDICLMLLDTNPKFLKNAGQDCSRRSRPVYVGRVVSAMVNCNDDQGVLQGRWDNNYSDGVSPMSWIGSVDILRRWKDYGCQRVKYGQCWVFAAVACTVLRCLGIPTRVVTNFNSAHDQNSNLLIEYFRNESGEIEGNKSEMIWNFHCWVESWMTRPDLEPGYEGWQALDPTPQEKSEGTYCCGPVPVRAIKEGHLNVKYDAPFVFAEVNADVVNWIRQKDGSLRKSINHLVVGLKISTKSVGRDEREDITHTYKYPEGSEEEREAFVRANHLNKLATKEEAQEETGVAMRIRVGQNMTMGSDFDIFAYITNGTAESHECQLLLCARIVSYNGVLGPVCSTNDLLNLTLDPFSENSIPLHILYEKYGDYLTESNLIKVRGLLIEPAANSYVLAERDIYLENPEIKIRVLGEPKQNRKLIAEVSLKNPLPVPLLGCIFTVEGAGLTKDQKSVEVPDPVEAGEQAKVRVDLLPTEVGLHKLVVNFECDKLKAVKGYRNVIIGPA
From the text: Because FXIII is a member of the tissue transglutaminase (tTG) family, all potential FXIIIa inhibitors identified in the primary FXIIIa screening assay were further screened for tTG (non-FXIII-specific) inhibitory activity. The tTG screening assay was identical to the primary FXIIIa screening assay, except that tTG (Sigma) was used instead of FXIIIa and no thrombin or PPACK was used.
The determination of IC50 values was done the same as in the primary FXIIIa screening assay, except that purified compounds were used at varying concentrations (instead of crude culture extracts). The IC50 values allow one to make comparisons of one compound to another.

[2] = biological target: T2, papain (Carica papaya, UniProt P00784); assay: Papain inhibition assay; type: biochemical
T2 construct: purchased Boehringer Mannheim
T2 sequence (P00784 134-345): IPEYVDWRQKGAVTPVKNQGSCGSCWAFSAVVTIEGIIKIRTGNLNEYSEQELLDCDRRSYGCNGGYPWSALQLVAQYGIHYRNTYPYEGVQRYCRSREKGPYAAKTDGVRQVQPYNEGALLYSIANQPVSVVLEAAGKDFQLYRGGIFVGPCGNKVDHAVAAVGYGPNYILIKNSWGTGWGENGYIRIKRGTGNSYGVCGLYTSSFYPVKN
Description: For the papain inhibition assay, a buffer containing 0.1M NaPO4 and 2.5 mM EDTA at about pH 7.0 was used. An Azocoll™ solution was prepared by adding 5 mg Azocoll™ (Calbiochem; an insoluble, powdered cowhide to which a bright red dye is attached (azo-dye-bound collagen)) to the buffer while stirring. The Azocoll was prewarmed to about 37° C. 10 μl of 0.1M L-cysteine, 10 μl of 50 μg/ml papain (Boehringer Mannheim), 0.5 ml of Azocoll solution, and 50 μl of one of a series of concentrations of ZG-1400a, iodoacetamide, iodoacetic acid, cerulenin, or 50 μl of the DMSO or ethanol negative controls were added to duplicate 13×75 mm glass tubes. The ZG-1400a, iodoacetamide, and iodoacetic acid were individually prepared in 10% DMSO and tested using half-log dilutions, starting at a final assay concentration of 100 μM and diluting to 10 nM. Cerulenin was prepared in 10% ethanol and tested using half-log dilutions, starting at a final assay concentration of 100 μM and diluting to 10 nM. A negative (no inhibition) control for ZG-1400a, iodoacetamide and iodoacetic acid was 50 μl of 10% DMSO to give a final assay concentration of 1% DMSO in each control tube. A negative control for cerulenin was 50 μl of 10% ethanol to give a final assay concentration of 1% ethanol in each control tube. The test and control tubes then were incubated for 30 min at 37° C. in an agitated water bath.
After incubation, all of the tubes were centrifuged at 2000 RPM for 5 min. The supernatant was removed and its absorbance was read at 520 nm on a Beckman DU640 spectrophotometer to determine the amount of papain inhibition.

[3] = tested on: plasma clots; assay: Plasma clot lysis assay; set-up: species or system human; conditions: 100 μM
Description: For this assay, 50 μl of one of a series of concentrations of iodoacetic acid, cerulenin, or ZG-1400a was added to 0.5 ml human citrated plasma (prepared from one blood donor) in 5 ml polypropylene tubes. The ZG-1400a and iodoacetic acid were individually prepared in 10% DMSO and tested using half-log dilutions, starting at a final assay concentration of 100 μM and diluting to 10 μM. Cerulenin was prepared in 10% ethanol and tested using half-log dilutions, starting at a final assay concentration of 100 μM and diluting to 10 μM.
Approximately 10^6 cpm ^125 I-fibrinogen (Amersham), 50 mM CaCl2 (20 mM above citrate concentration) and 5 units thrombin (bovine, Enzyme Research Labs) were added to each test and control tube. The tubes were incubated while rocking for 20 h at 37° C. Plasma clots formed in the tubes were washed three times with about 1 ml phosphate buffered saline (PBS). The plasma clots in each tube were counted after the PBS washes.
Approximately 2 ml of 50 mM Tris, pH 7.4, containing 50 mM NaCl, 28 μg plasminogen (human, Calbiochem), and 280 ng urokinase (human, Calbiochem) were added to the clots in test and control tubes. At 1, 2, and 4 h intervals, 25 μl aliquots of the samples were removed from each tube and counted.
The values shown in Table 3 represent the amount of lysis after plasma clots were formed for about 20 h and exposed to plasminogen and urokinase for about 4 h.

[4] = biological target: T3, FXIIIa (Homo sapiens, UniProt P00488); assay: Primary FXIIIa screening assay (cross-linking of biotinylated fibrinogen and immobilized fibronectin); type: biochemical
T3 sequence (P00488 39-732 limits assumed): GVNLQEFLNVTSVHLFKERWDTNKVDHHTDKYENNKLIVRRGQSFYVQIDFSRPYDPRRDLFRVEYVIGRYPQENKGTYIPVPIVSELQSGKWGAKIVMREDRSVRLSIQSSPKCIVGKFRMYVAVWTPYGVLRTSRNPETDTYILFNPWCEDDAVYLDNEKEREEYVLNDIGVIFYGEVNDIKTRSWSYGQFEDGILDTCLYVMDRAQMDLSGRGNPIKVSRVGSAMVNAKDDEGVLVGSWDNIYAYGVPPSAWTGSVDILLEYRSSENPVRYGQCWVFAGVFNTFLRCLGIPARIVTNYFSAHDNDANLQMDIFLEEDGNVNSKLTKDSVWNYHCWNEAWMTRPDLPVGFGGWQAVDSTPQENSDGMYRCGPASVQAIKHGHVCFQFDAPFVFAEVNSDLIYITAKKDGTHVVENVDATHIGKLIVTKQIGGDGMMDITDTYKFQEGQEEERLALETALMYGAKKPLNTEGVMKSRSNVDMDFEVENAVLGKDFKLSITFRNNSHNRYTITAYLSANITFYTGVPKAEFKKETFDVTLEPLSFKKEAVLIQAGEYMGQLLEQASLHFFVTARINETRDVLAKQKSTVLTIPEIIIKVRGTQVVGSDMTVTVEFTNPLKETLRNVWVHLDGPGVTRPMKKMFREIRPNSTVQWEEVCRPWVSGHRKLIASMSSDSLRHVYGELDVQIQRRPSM
Description: The primary FXIIIa screening assay used a 96-well high throughput assay format. This assay assesses test sample inhibition of FXIIIa catalyzed cross-linking of biotinylated fibrinogen and immobilized fibronectin.
Test samples (possibly containing FXIIIa inhibitors) were added to 96-well plates coated with fibronectin, followed by the addition of FXIIIa, as described in the primary FXIIIa screening assay, below. Biotinylated fibrinogen was added to the wells, and streptavidin-alkaline phosphatase was used to detect biotinylated fibrinogen that had been cross-linked to fibronectin.
Purified fibronectin was diluted to 1 μg/ml in 0.1M Na2 CO3, pH 9.7, and added to control and test assay wells of 96-well plates at 100 μl/well. All wells were incubated overnight at 4° C.
After incubation, the plate wells were washed twice with 200 μl/well of wash buffer per wash to remove all fibronectin not bound to the wells. The wash buffer contained 0.135M NaCl, 2.7 mM KCl, 25 mM Tris at about pH 7.4, and 0.1% Tween 20® (Sigma Chemical Co., St. Louis, Mo.; polyoxyethylenesorbitan monolaurate). The plate wells were then blocked with 200 μl/well blocking buffer and incubated for 1-2 h at 37° C. The blocking buffer contained 0.135M NaCl, 2.7 mM KCl, 25 mM Tris at about pH 7.4, 0.1% Tween 20®, and 0.5% BSA (bovine serum albumin, Sigma fraction V; Sigma). After incubation, the plates wells were again washed with 200 μl/well of wash buffer to remove excess blocking buffer.
Briefly, fibrinogen was dialyzed against 0.1M NaHCO3, pH 8.5 (coupling buffer) at a concentration of 1 mg/ml. BNHS was dissolved in dimethylformamide at a concentration of 1.7 mg/ml, and added to fibrinogen in coupling buffer at a ratio of 30 μl BNHS to 1 ml fibrinogen. The mixture was incubated with rocking for 4 h at room temperature, dialyzed against PBS, and stored in aliquots at -80° C.
Biotinylated fibrinogen (40 μl of 20 μg/ml solution) was added to each plate well. Except in control wells (which received 10 μl of 10% DMSO alone), 10 μl of each of the 11,198 crude extracts in 10% DMSO were added to duplicate wells after the addition of biotinylated fibrinogen, resulting in a 1% final assay concentration of DMSO.
FXIIIa (recombinant human FXIIIa2 (ZymoGenetics), as described in European Patent No. 0 268 772, granted Apr. 26, 1995, and incorporated herein by reference) was diluted to 100 μg/ml in a solution of 50 mM Tris, 5 mM CaCl2 at pH 7.4 containing 1 unit/ml thrombin (bovine; Enzyme Research Labs) and incubated for 20 min at 37° C. FXIIIa then was diluted to 1 μg/ml in a cross-linking buffer consisting of the blocking buffer described above plus 20 mM CaCl2 and 75 ng/ml D-phenylalanyl-L-prolyl-L-arginine chloromethyl ketone (PPACK; Calbiochem, La Jolla, Calif.). Fifty microliters of FXIIIa in cross-linking buffer was added to each test and control well. All wells then were incubated for about 10 min at 37° C.
After incubation, the wells were washed twice with 200 μl/well of wash buffer to remove all biotinylated fibrinogen that was not cross-linked to fibronectin.

[5] = tested on: clot formation; conditions: background; cited from earlier work

| SMILES | IC50 [1] [µM] | IC50 [2] [µM] | Papain inhibition (result in words, IC50 table) ([2]; 100 μM to 10 nM, 30 min at 37° C.) | susceptibility of plasma clots to lysis by plasminogen and urokinase [3] | % Plasma Clot lysis ([3]; clots formed about 20 h, plasminogen and urokinase about 4 h) [%] | IC50 [4] [µM] | internal bleeding [5] | toxicity [5] |
| --- | --- | --- | --- | --- | --- | --- | --- | --- |
| O=C(O)CI [Iodoacetic Acid, iodoacetic acid] | 32 | 0.7 | did cause inhibition | significantly more susceptible to lysis | 23 | 350 | – | – |
| O=c1oc2ccccc2c(O)c1Cc1c(O)c2ccccc2oc1=O [dicoumarin] | – | – | – | – | – | – | more prone to internal bleeding | associated with toxicity |
